{"source": "patent US5304540A", "about": "“Pharmaceutical bacteriocin compositions and methods for using the same” (Applied Microbiology, Inc., priority 1993, dated 1994)", "key": {"Escherichia coli": {"test_system": "Escherichia coli", "assay": "Germicidal suspension assay, E. coli;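 further: surviving cells were scored as colonies on nutrient agar after 24 h at 37° C, survival given as percent of untreated controls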", "type": "cell-based", "conditions": "for % survival at 1 min: 37° C.", "procedure": "E. coli cells from an overnight Trypticase soy nutrient agar (TSA) were resuspended to a density measured as an absorbance of 1.0 at 600 nm in sterile ddH2 O. The reaction of the cells with each of the bactericidal test formulations analyzed was started by addition of 30 μl of cells to 970 μl of test formulation. The reaction mixture was incubated at 37° C for at least 1 minute and then centrifuged in a microfuge for 1 minute. The cell pellet was washed by resuspension in 1 ml of neutralization buffer. (The neutralization buffer: 50 mM Tris-HCl, pH 7.0, 5 mM MgSO4, 20 mM CaCl2, 0.1 M NaCl and 0.1% gelatin was prepared by first making Tris buffer and adjusting the pH. The salts and gelatin were then added and the solution stirred with heat until the solution was clear. The solution was then autoclaved for 20 min. The neutralization buffer was used without dilution.) The cells were centrifuged in a microfuge for 1 minute and resuspended in 1 ml of neutralization buffer. The viable count was determined by spreading 100 μl of bacterial suspension and serial dilutions thereof in neutralization buffer on nutrient agar and scoring surviving colonies after 24 h at 37° C. Percent survival relative to untreated controls was calculated from the scored values."}, "E. coli strain ATCC8739": {"test_system": "E. coli strain ATCC8739", "assay": "Nisin-citrate agar growth inhibition assay", "type": "cell-based, Escherichia coli", "method": "The nisin-citrate agar assay is performed as follows. E. coli is resuspended to an optical density of 1.0 at A600. A 100 μl sample of the bacterial suspension is spread uniformly on Trypticase Soy nutrient agar (TSA) supplemented with various concentrations of citrate (e.g. 0.1%, 0.3%, 1.0%, 3.0%) and incubated for 1 hour at 37° C. A nisin stock solution and serial dilutions thereof in 0.1% bovine serum albumin (BSA), are prepared and 5 μl are taken from each and deposited onto the growing bacterial lawn. The TSA plates are then incubated for 24 hours at 37° C. After 24 hours at 37° C., E. coli grown on TSA supplemented with citrate form a confluent lawn. […] The effectiveness of nisin against the gram negative bacteria can be assessed from determining the minimum amount of nisin required to produce a clear zone of growth inhibition. As the concentration of citrate in the nutrient agar is increased, less nisin is required to inhibit the growth of E. coli, as is illustrated by the data shown in Table 6."}}, "note": "Read-outs that look alike come from different tables or passages of the source."}
{"substance": "nisin", "values": [{"measurement": "% survival at 1 min", "setting": "Escherichia coli; 0.1% w/v acetate pH 3.5, nisin 100 μg/ml and/or EDTA 1.0 mM where present, initial 2 × 10^7 cfu/ml", "result": 9.6, "unit": "%"}, {"measurement": "% survival at 1 min", "setting": "Escherichia coli; 0.1% w/v lactate pH 3.5, nisin 100 μg/ml and/or EDTA 1.0 mM where present, initial 5 × 10^7 cfu/ml", "result": 4.4, "unit": "%"}, {"measurement": "% survival at 1 min", "setting": "Escherichia coli; 0.1% w/v succinate pH 3.5, nisin 100 μg/ml and/or EDTA 1.0 mM where present, initial 3.4 × 10^6 cfu/ml", "result": 18.3, "unit": "%"}, {"measurement": "% survival at 1 min", "setting": "Escherichia coli; 0.3% w/v acetate pH 3.5, nisin 100 μg/ml and/or EDTA 1.0 mM where present, initial 2 × 10^7 cfu/ml", "result": 70, "unit": "%"}, {"measurement": "% survival at 1 min", "setting": "Escherichia coli; 0.3% w/v lactate pH 3.5, nisin 100 μg/ml and/or EDTA 1.0 mM where present, initial 5 × 10^7 cfu/ml", "result": 0.24, "unit": "%"}, {"measurement": "% survival at 1 min", "setting": "Escherichia coli; 0.3% w/v succinate pH 3.5, nisin 100 μg/ml and/or EDTA 1.0 mM where present, initial 3.4 × 10^6 cfu/ml", "result": 66.6, "unit": "%"}, {"measurement": "% survival at 1 min", "setting": "Escherichia coli; 1.0% w/v acetate pH 3.5, nisin 100 μg/ml and/or EDTA 1.0 mM where present, initial 2 × 10^7 cfu/ml", "result": 100, "unit": "%"}, {"measurement": "% survival at 1 min", "setting": "Escherichia coli; 1.0% w/v lactate pH 3.5, nisin 100 μg/ml and/or EDTA 1.0 mM where present, initial 5 × 10^7 cfu/ml", "result": 17.8, "unit": "%"}, {"measurement": "% survival at 1 min", "setting": "Escherichia coli; 1.0% w/v succinate pH 3.5, nisin 100 μg/ml and/or EDTA 1.0 mM where present, initial 3.4 × 10^6 cfu/ml", "result": 83.4, "unit": "%"}, {"measurement": "% survival at 1 min", "setting": "Escherichia coli; 3.0% w/v acetate pH 3.5, nisin 100 μg/ml and/or EDTA 1.0 mM where present, initial 2 × 10^7 cfu/ml", "result": 100, "unit": "%"}, {"measurement": "% survival at 1 min", "setting": "Escherichia coli; 3.0% w/v lactate pH 3.5, nisin 100 μg/ml and/or EDTA 1.0 mM where present, initial 5 × 10^7 cfu/ml", "result": 26.7, "unit": "%"}, {"measurement": "% survival at 1 min", "setting": "Escherichia coli; 3.0% w/v succinate pH 3.5, nisin 100 μg/ml and/or EDTA 1.0 mM where present, initial 3.4 × 10^6 cfu/ml", "result": 28.4, "unit": "%"}, {"measurement": "survival of E. coli on exposure to the agent by itself", "setting": "Escherichia coli; agent by itself", "result": "unaffected"}, {"measurement": "% survival at 1 min", "setting": "Escherichia coli; pH 2.0, 20 mM Na acetate buffer, nisin 100 μg/ml and/or EDTA 1.0 mM, initial 4 × 10^7 cfu/ml", "result": 0.28, "unit": "%"}, {"measurement": "% survival at 1 min", "setting": "Escherichia coli; pH 2.5, 20 mM Na acetate buffer, nisin 100 μg/ml and/or EDTA 1.0 mM, initial 4 × 10^7 cfu/ml", "result": 3.37, "unit": "%"}, {"measurement": "% survival at 1 min", "setting": "Escherichia coli; pH 3.0, 20 mM Na acetate buffer, nisin 100 μg/ml and/or EDTA 1.0 mM, initial 4 × 10^7 cfu/ml", "result": 4.43, "unit": "%"}, {"measurement": "% survival at 1 min", "setting": "Escherichia coli; pH 3.5, 20 mM Na acetate buffer, nisin 100 μg/ml and/or EDTA 1.0 mM, initial 4 × 10^7 cfu/ml", "result": 100, "unit": "%"}, {"measurement": "% survival at 1 min", "setting": "Escherichia coli; pH 4.0, 20 mM Na acetate buffer, nisin 100 μg/ml and/or EDTA 1.0 mM, initial 4 × 10^7 cfu/ml", "result": 100, "unit": "%"}, {"measurement": "% survival at 5 min", "setting": "Helicobacter pylori; pH 7", "result": 5.88}, {"measurement": "% survival at 5 min", "setting": "Helicobacter pylori; strain ATCC43504, pH 5.0, citrate 0, nisin 100 μg/ml, second of two experiments (initial 3.26 × 10^5 cfu/ml)", "result": 0.043, "unit": "%"}, {"measurement": "% survival at 5 min", "setting": "Helicobacter pylori; strain ATCC43504, pH 7.0, citrate 0, nisin 100 μg/ml, initial 9.62 × 10^4 cfu/ml", "result": 2.08, "unit": "%"}, {"measurement": "% survival at 5 min", "setting": "Helicobacter pylori; strain ATCC43579, citrate 0, nisin 100 μg/ml, pH 5.0, average of 5 experiments", "result": 0.30, "unit": "%"}, {"measurement": "% survival at 5 min", "setting": "Helicobacter pylori; strain ATCC43579, pH 5.0, citrate 0, nisin 100 μg/ml, 37° C., initial 1.04 × 10^4 cfu/ml", "result": 9.62, "unit": "%"}, {"measurement": "% survival at 5 min", "setting": "Helicobacter pylori; strain ATCC43579, pH 5.0, nisin 10 μg/ml, citrate 0.1% where present, 37° C.", "result": 1.31, "unit": "%"}, {"measurement": "% survival at 5 min", "setting": "Helicobacter pylori; strain ATCC43579, pH 5.0, nisin 30 μg/ml, citrate 0.1% where present, 37° C.", "result": 0.39, "unit": "%"}, {"measurement": "% survival at 5 min", "setting": "Helicobacter pylori; strain ATCC43579, pH 5.0, nisin 100 μg/ml, citrate 0.1% where present, 37° C.", "result": 0.085, "unit": "%"}, {"measurement": "% survival at 5 min", "setting": "Helicobacter pylori; strain ATCC43579, pH 5.0, nisin 300 μg/ml, citrate 0.1% where present, 37° C.", "result": 0.0056, "unit": "%"}, {"measurement": "% survival at 5 min", "setting": "Helicobacter pylori; strain ATCC43579, pH 7.0, citrate 0, nisin 100 μg/ml, 37° C.", "result": 0.78, "unit": "%"}, {"measurement": "Nisin NIC (nominal inhibitory concentration of nisin minimally required to prevent growth)", "setting": "E. coli strain ATCC8739; Trypticase Soy Agar supplemented with 0.1% citrate", "result": 370, "unit": "µg/mL"}, {"measurement": "Nisin NIC (nominal inhibitory concentration of nisin minimally required to prevent growth)", "setting": "E. coli strain ATCC8739; Trypticase Soy Agar supplemented with 0.3% citrate", "result": 123, "unit": "µg/mL"}, {"measurement": "Nisin NIC (nominal inhibitory concentration of nisin minimally required to prevent growth)", "setting": "E. coli strain ATCC8739; Trypticase Soy Agar supplemented with 1.0% citrate", "result": 13.7, "unit": "µg/mL"}, {"measurement": "Nisin NIC (nominal inhibitory concentration of nisin minimally required to prevent growth)", "setting": "E. coli strain ATCC8739; Trypticase Soy Agar supplemented with 3.0% citrate", "result": 0.06, "unit": "µg/mL"}, {"measurement": "Nisin NIC (nominal inhibitory concentration of nisin minimally required to prevent growth)", "setting": "E. coli strain ATCC8739; Trypticase Soy Agar, 0% citrate", "result": "3,333 μg/ml"}]}
